Test results published in patent publication US20220324835A1 (Nurix Therapeutics, Inc., priority 2018, published 2022).
pKd: −log10 of the molar value. Where two headings read alike, the source gives them in different places.

Columns and labels:
T-cell [1] = assay: CD25 cell surface staining on T-cells co-stimulated with anti-CD3 and anti-CD28 antibody (Biological Example 2); type: cell-based, human; conditions: Homo sapiens, T-cell, primary human total T-cells
Procedure, shortened: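 T-cells were stimulated with anti-CD3 antibody alone or with anti-CD28 antibody, in the presence or absence of Cbl-b inhibitor. IL-2 secretion or CD25 surface staining was measured, and values expressed as fold over the uninhibited baseline […].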

Cbl-b (residues 36-427) = Cbl-b (residues 36-427) (Homo sapiens, UniProt Q13191); assay: Cbl-b binding assay (SPR, Biacore T200); conditions: 20° C., 1:1 binding model
Procedure, shortened: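 Steps: capture protein on NeutrAvidin surface; inject compound dilutions (8 or 10 points from 100 or 50 μM) 50 s; allow 90-180 s dissociation; regenerate 20 s with 0.3 M NaCl. Runs at 20° C in HEPES pH 7.5/100 mM NaCl/2% DMSO; 1:1 fitting.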

T-cell [2] = assay: IL-2 secretion from T-cells stimulated with anti-CD3 antibody alone (Biological Example 2); type: cell-based; conditions: primary human total T-cells, read-out: IL-2 secretion, Anti-CD3 stimulation, fold change over baseline; for fold induction at 1 µM: 1 μM compound; for fold induction at 8 µM: 8 μM compound
[3] = 0.3 μM compound, baseline = anti-CD3/anti-CD28 stimulated cells without inhibitor, read-out: CD25 staining, Anti-CD3/Anti-CD28 stimulation, fold change over baseline
[4] = 1 μM compound, baseline = anti-CD3/anti-CD28 stimulated cells without inhibitor, read-out: CD25 staining, Anti-CD3/Anti-CD28 stimulation, fold change over baseline
[5] = 4 μM compound, baseline = anti-CD3/anti-CD28 stimulated cells without inhibitor, read-out: CD25 staining, Anti-CD3/Anti-CD28 stimulation, fold change over baseline
[6] = fold change over baseline, 0.3 μM Cbl-b inhibitor, read-out: CD25 staining Anti-CD3/Anti-CD28 stimulation
[7] = fold change over baseline, 1 μM Cbl-b inhibitor, read-out: CD25 staining Anti-CD3/Anti-CD28 stimulation
[8] = fold change over baseline, 4 μM Cbl-b inhibitor, read-out: CD25 staining Anti-CD3/Anti-CD28 stimulation

Sequence of Cbl-b (residues 36-427) (Q13191 36-427): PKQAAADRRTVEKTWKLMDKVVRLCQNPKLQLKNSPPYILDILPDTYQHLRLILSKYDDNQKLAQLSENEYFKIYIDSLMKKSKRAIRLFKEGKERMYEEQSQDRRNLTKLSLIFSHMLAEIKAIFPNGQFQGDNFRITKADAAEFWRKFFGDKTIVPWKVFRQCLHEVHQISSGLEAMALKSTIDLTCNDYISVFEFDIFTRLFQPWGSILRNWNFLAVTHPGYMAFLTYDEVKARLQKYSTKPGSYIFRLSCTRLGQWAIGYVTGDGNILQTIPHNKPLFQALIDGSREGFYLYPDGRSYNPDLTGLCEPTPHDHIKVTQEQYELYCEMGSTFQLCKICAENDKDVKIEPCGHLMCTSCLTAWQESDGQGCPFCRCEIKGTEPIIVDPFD

Structure (SMILES) | fold induction at 0.3 µM (T-cell [1]; [3]) | fold induction at 1 µM (T-cell [1]; [4]) | fold induction at 4 µM (T-cell [1]; [5]) | pKd (Cbl-b (residues 36-427)) | fold induction at 1 µM (T-cell [2]) | fold induction at 8 µM (T-cell [2]) | fold induction at 0.3 µM (T-cell [1]; [6]) | fold induction at 1 µM (T-cell [1]; [7]) | fold induction at 4 µM (T-cell [1]; [8])
Cn1cnnc1C(F)(F)[C@](C)(F)c1cccc(N2Cc3c(cc(CN4CC[C@H](F)C4)cc3C(F)(F)F)C2=O)c1 [Compound 447, 6-(((S)-3-fluoropyrrolidin-1-yl)methyl)-2-(3-((R)-1,1,2-trifluoro-1-(4-methyl-4H-1,2,4-triazol-3-yl)propan-2-yl)phenyl)-4-(trifluoromethyl)isoindolin-1-one] | 1.31 to 1.5 | 1.51 to 1.75 | 1.51 to 1.75 | > 7.00 | > 0.201 | > 0.201 |  |  | 
Cn1cnnc1CC1(c2cccc(N3Cc4c(cc(CN5C[C@H]6C[C@H]6C5)cc4C(F)(F)F)C3=O)c2)COC1 [Compound 429, 6-(((1R,5S)-3-azabicyclo[3.1.0]hexan-3-yl)methyl)-2-(3-(3-((4-methyl-4H-1,2,4-triazol-3-yl)methyl)oxetan-3-yl)phenyl)-4-(trifluoromethyl)isoindolin-1-one] | 1.31 to 1.5 | 1.31 to 1.5 | 1.51 to 1.75 |  | > 0.201 | > 0.201 |  |  | 
Cn1cnnc1CC1(c2cccc(N3Cc4c(cc(CN5CC6(CC6)C5)cc4C(F)(F)F)C3=O)c2)COC1 [Compound 487, 6-{5-azaspiro[2.3]hexan-5-ylmethyl}-2-(3-{3-[(4-methyl-1,2,4-triazol-3-yl)methyl]oxetan-3-yl}phenyl)-4-(trifluoromethyl)-3H-isoindol-1-one] | 1.31 to 1.5 | 1.31 to 1.5 |  |  | > 0.201 |  |  |  | 
Cn1cnnc1CC1(c2cccc(NC(=O)c3cc(CN4CC[C@H](F)C4)cc(C4CC4)n3)c2)COC1 [Compound 496, 6-cyclopropyl-4-{[(3S)-3-fluoropyrrolidin-1-yl]methyl}-N-(3-{3-[(4-methyl-1,2,4-triazol-3-yl)methyl]oxetan-3-yl}phenyl)pyridine-2-carboxamide] | 1.51 to 1.75 | 1.51 to 1.75 |  | > 7.00 | > 0.201 |  |  |  | 
Cn1cnnc1C(F)(F)[C@](C)(F)c1cccc(N2Cc3c(cc(CN4CCC(F)(F)C4)cc3C(F)(F)F)C2=O)c1 [Compound 448, (R)-6-((3,3-difluoropyrrolidin-1-yl)methyl)-2-(3-(1,1,2-trifluoro-1-(4-methyl-4H-1,2,4-triazol-3-yl)propan-2-yl)phenyl)-4-(trifluoromethyl)isoindolin-1-one] | 1.01 to 1.3 | 1.01 to 1.3 | 1.31 to 1.5 | > 7.00 | 0.101 to 0.15 | > 0.201 |  |  | 
C[C@H](c1cc2c(c(C(F)(F)F)c1)CN(c1cccc(C3(Cc4nncn4C)COC3)c1)C2=O)N1CCC(C)(F)CC1 [Example 553b, (R)-6-(1-(4-fluoro-4-methylpiperidin-1-yl)ethyl)-2-(3-(3-((4-methyl-4H-1,2,4-triazol-3-yl)methyl)oxetan-3-yl)phenyl)-4-(trifluoromethyl)isoindolin-1-one] | > 1.76 | > 1.76 |  |  | > 0.201 |  |  |  | 
Cn1cnnc1CC1(c2cccc(N3Cc4c(cc(CN5CC[C@H](F)C5)cc4C(F)(F)F)C3=O)c2)COC1 [Compound 410, 6-{[(3S)-3-fluoropyrrolidin-1-yl]methyl}-2-(3-{3-[(4-methyl-4H-1,2,4-triazol-3-yl)methyl]oxetan-3-yl}phenyl)-4-(trifluoromethyl)-2,3-dihydro-1H-isoindol-1-one] | 1.31 to 1.5 | 1.51 to 1.75 | 1.51 to 1.75 |  | > 0.201 | > 0.201 |  |  | 
C[C@@H](c1cc2c(c(C(F)(F)F)c1)CN(c1cccc(C3(Cc4nncn4C)COC3)c1)C2=O)N1CCC(C)(F)CC1 [Example 553a, (S)-6-(1-(4-fluoro-4-methylpiperidin-1-yl)ethyl)-2-(3-(3-((4-methyl-4H-1,2,4-triazol-3-yl)methyl)oxetan-3-yl)phenyl)-4-(trifluoromethyl)isoindolin-1-one] | > 1.76 | > 1.76 |  | > 7.00 | > 0.201 |  |  |  | 
C[C@@H](c1cc2c(c(C(F)(F)F)c1)CN(c1cccc(C3(Cc4nncn4C)COC3)c1)C2=O)N1C[C@H]2C[C@H]2C1 [Compound 541a, 6-((1S)-1-(3-azabicyclo[3.1.0]hexan-3-yl)ethyl)-2-(3-(3-((4-methyl-4H-1,2,4-triazol-3-yl)methyl)oxetan-3-yl)phenyl)-4-(trifluoromethyl)isoindolin-1-one] | 1.31 to 1.5 | 1.31 to 1.5 |  |  | > 0.201 |  |  |  | 
C[C@H](Cc1nncn1C)c1cccc(NC(=O)c2ccc(CO)c(C3CC3)n2)c1 [Compound 203, 6-cyclopropyl-5-(hydroxymethyl)-N-[3-[(2R)-1-(4-methyl-4H-1,2,4-triazol-3-yl)propan-2-yl]phenyl]pyridine-2-carboxamide] |  |  |  | > 7.00 |  |  | 1.31 to 1.5 | 1.51 to 1.75 | 1.51 to 1.75
Cn1cnnc1CC1(c2cccc(N3Cc4c(cc(CN5CCC[C@H](F)C5)cc4C(F)(F)F)C3=O)c2)COC1 [Compound 432, 6-{[(3S)-3-fluoropiperidin-1-yl]methyl}-2-(3-{3-[(4-methyl-4H-1,2,4-triazol-3-yl)methyl]oxetan-3-yl}phenyl)-4-(trifluoromethyl)-2,3-dihydro-1H-isoindol-1-one] | 1.31 to 1.5 | 1.31 to 1.5 |  |  | > 0.201 |  |  |  | 
Cn1cnnc1CC1(c2cccc(N3Cc4c(cc(CN5CC[C@@H](C#N)C5)cc4C(F)(F)F)C3=O)c2)COC1 [Compound 421, (R)-1-((2-(3-(3-((4-methyl-4H-1,2,4-triazol-3-yl)methyl)oxetan-3-yl)phenyl)-3-oxo-7-(trifluoromethyl)isoindolin-5-yl)methyl)pyrrolidine-3-carbonitrile] | 1.01 to 1.3 | 1.01 to 1.3 | 1.31 to 1.5 |  | 0.101 to 0.15 | > 0.201 |  |  | 
Cc1cc(C(=O)Nc2cccc([C@H](C)Cc3nocc3C)c2)nc(C2CC2)n1 [Compound 330, (R)-2-cyclopropyl-6-methyl-N-(3-(1-(4-methylisoxazol-3-yl)propan-2-yl)phenyl)pyrimidine-4-carboxamide] |  |  |  | 6.00 to 6.52 |  |  | 1.01 to 1.3 | 1.01 to 1.3 | 1.01 to 1.3
